# Target: α-glucosidase (EC 3.2.1.20, Saccharomyces cerevisiae type I)
# Assay: enzyme inhibition with pNPG substrate, absorbance at […] nm
# Type: biochemical
smiles,measurement,value
O=c1cc(-c2ccc(O)c(O)c2)oc2cc(O)cc(O)c12 [luteolin],IC50,16.2 µM

# Reference: article PMC10224510, “Luteolin and Vernodalol as Bioactive Compounds of Leaf and Root Vernonia amygdalina Extracts: Effects on α-Glucosidase, Glycation, ROS, Cell Viability, and In Silico ADMET Parameters” (Pharmaceutics, 2023)
